In US20160108414A1, “GROWTH-RELATED ENOX PROTEINS FROM PLANTS WITH YIELD ENHANCEMENT POTENTIAL, SEQUENCES AND METHODS” (Mor-NuCo Enterprises, Inc., priority 2013, published 2016):
Positions count from the first letter of the chain named. In names and notes the source's numbering stands.

Tests used:
Assay type in all cases: biochemical
[1] = molecular target: T1, recombinant ABP-20 (Prunus persica, UniProt O04011, DUP151-151); assay: NADH oxidase activity of IEF-purified recombinant ABP-20 (dNOX); settings: for NADH oxidase activity: average of 3 determinations ± SD, None = 0.1 ± 0.08
T1 construct: made in house; host or cells: E. coli BL21 (DE3), pET11b
T1 sequence (O04011 other isoform, or with tags, fused parts or gaps DUP151-151): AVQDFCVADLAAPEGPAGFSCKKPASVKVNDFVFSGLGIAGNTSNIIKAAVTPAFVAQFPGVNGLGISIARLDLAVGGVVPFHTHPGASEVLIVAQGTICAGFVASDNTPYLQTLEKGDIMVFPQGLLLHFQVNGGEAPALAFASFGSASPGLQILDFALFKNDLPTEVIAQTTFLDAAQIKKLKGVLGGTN
Procedure: (§1) Oxidation of NADH was determined spectrophotometrically from the disappearance of NADH measured at 340 nm in a reaction mixture containing 25 mM Tris-MES (pH 7.2), 100 μM GSH, 1 mM KCN to inhibit mitochondrial oxidase activity, 150 μM NADH and the enzyme at 37° C. with temperature control (±0.5° C.) and stirring. Prior to assay, 1 μM reduced glutathione was added to reduce the protein in the presence of substrate. After 10 min, 0.03% hydrogen peroxide was added to reoxidize the protein under renaturing conditions and in the presence of substrate to start the reaction. Activities were measured using paired Hitachi U3210 or paired SLM Aminco 2000 spectrophotometers both with continuous recording. Assays were run for 1 min and were repeated on the same sample at intervals of 1.5 min for the times indicated. An extinction coefficient of 6.22 cm^−1 mM^−1 was used to determine specific activity.
Cells were centrifuged at 5,000 g for 6 min. Pellets were then resuspended in 20 mM Tris-HCl, pH 8.0, containing 0.5 mM PMSF, 1 mM benzamidine and 1 mM 6-aminocaproic and lysed by three passages through a French pressure cell (SLM Aminco) at 20,000 psi. Expression of the recombinant ABP-20 of about 20 kDa was confirmed by SDS-PAGE with silver staining. Transformed cells were stored at −80° C. in a standard glycerol stock solution. The recombinant proteins were further purified on Criterion IEF gels (Bio-Rad, Hercules, Calif.). The IEF gel was cut into seven equal segments. The pH represented by each slice was based on IEF standards (Bio-Rad). The slices were soaked in 15 mM Tris-Mes buffer, pH 7, at 4° C. for overnight with shaking. The gel-free extracts were assayed for ENOX activities as follows: […]

[2] = system: recombinant Arabidopsis ENOX1; assay: NADH oxidase activity of IEF-purified recombinant Arabidopsis ENOX1; settings: for NADH oxidase activity: average of 3 determinations ± SD, None = 2.7 ± 0.4; for Effect on ENOX1 activity eluted from the IEF gel: concentrations of Table 5
Procedure: Cells were centrifuged at 5,000 g for 6 min. Pellets were then resuspended in 20 mM Tris-HCl, pH 8.0, containing 0.5 mM PMSF, 1 mM benzamidine and 1 mM 6-aminocaproic and lysed by three passages through a French pressure cell (SLM Aminco) at 20,000 psi. Expression of the recombinant Arabidopsis ENOX1 of about 14 kDa was confirmed by SDS-PAGE with silver staining. Transformed cells were stored at −80° C. in a standard glycerol stock solution. The Arabidopsis ENOX1 proteins were further purified on Criterion IEF gels (Bio-Rad, Hercules, Calif.). The IEF gel was cut into seven equal segments. The pH represented by each slice was based on IEF standards (Bio-Rad). The slices were soaked in 15 mM Tris-Mes buffer, pH 7, at 4° C. for overnight with shaking. The gel-free extracts were assayed for ENOX1 activity.
as §1
IEF purified ENOX1 was concentrated to 0.7 mg/ml by using a Centricon concentrator (Millipore Corporation, Danvers, Mass.) fitted with a 10,000 nominal molecular weight limit ultracel YM membrane. Samples (50 μl) were combined with 1 μl of trifluoroacetic acid (TFA) in the presence or absence of 15 μl 10 mM bathocuproine. After 2 h of incubation at room temperature, the samples were dialyzed (Spectra/Pro Dialysis membrane, molecular weight cut-off 6-8,000, Spectrum Laboratories (Rancho Dominguez, Calif.) against 20 mM Tris-HCl, pH 8, at 4° C. overnight.

[3] = system: dNOX (ABP-20); assay: DTDP (protein disulfide-thiol) interchange of dNOX (ABP-20) site-directed mutants
Procedure: Protein disulfide-thiol interchange was determined spectrophotometrically from the increase in absorbance at 340 nm resulting from the cleavage of dithiodipyridine (DTDP (Morré, D. J., Gomez-Rey, M. L., Schramke, C., Em, O., Lawler, J., Hobeck, J. and Morré, D. M. 1999. Mol. Cell. Bochem. 200: 7-13). DTDP cleavage was buffered (50 mM Tris-MES, pH 7). The assay was preincubated (1 h at room temperature) with 0.5 μmoles 2,2′-dithiodipyridine (DTDP) in 5 μl of DMSO to react with endogenous reductants present with the plasma membranes. After 10 min, a further […] DTDP were added in 35 μl DMSO to start the reaction. The final reaction volume was […]. The reaction was monitored from the increase in absorbance at 340 nm. Specific activities were calculated using a milimolar absorption coefficient of 6.21.
(§2) Amino acids indicated were replaced by alanines by site-directed mutagenesis according to Braman et al. (Braman, J., Papworth, C. and Greener, A. 1996. Methods Mol. Biol. 57:32-44). Numbered amino acids and nucleotide positions of splice variant products refer to numbers assigned to amino acids of the full length transcript

[4] = system: dNOX (ABP-20); assay: NADH oxidation of dNOX (ABP-20) site-directed mutants
Procedure: as §1, §2

## O=C(O)COc1cccc(Cl)c1Cl [2,3-dichlorophenoxyacetic acid]
[1]
  Effect on activity of recombinant ABP-20: without effect
[1]; addition 1 μM
  NADH oxidase activity: 0.15 ± 0.01 µmol/min/mg

## COc1cc(CNC(=O)CCCC/C=C/C(C)C)ccc1O [Capsaicin]
[2]; addition 1 μM
  NADH oxidase activity: 3.7 ± 0.1 µmol/min/mg
[2]
  Effect on ENOX1 activity eluted from the IEF gel: no inhibition was observed

## N.N.[Cl][Pt][Cl] [Cis-platinum]
[1]
  Effect on activity of recombinant ABP-20: inhibited the activity
[1]; addition 1 μM
  NADH oxidase activity: 0.2 ± 0.05 µmol/min/mg
[2]
  Effect on ENOX1 activity eluted from the IEF gel: no inhibition was observed
[2]; inhibitor 100 μM
  NADH oxidase activity: 3.5 ± 0.002 µmol/min/mg

## COc1cccc2c1C(=O)c1c(O)c3c(c(O)c1C2=O)C[C@@](O)(C(=O)CO)C[C@@H]3O[C@H]1C[C@H](N)[C@H](O)[C@H](C)O1 [Doxorubicin]
[1]
  Effect on activity of recombinant ABP-20: inhibited the activity
[1]; addition 1 μM
  NADH oxidase activity: 0.2 ± 0.05 µmol/min/mg

## O=C(O[C@@H]1Cc2c(O)cc(O)cc2O[C@@H]1c1cc(O)c(O)c(O)c1)c1cc(O)c(O)c(O)c1 [EGCg]
[2]
  Effect on ENOX1 activity eluted from the IEF gel: no inhibition was observed
[2]; inhibitor 500 μM
  NADH oxidase activity: 3.9 ± 0.05 µmol/min/mg

## O=C(O)c1cc(O)c(O)c(O)c1 [Gallic acid]
[2]; inhibitor 100 μM
  NADH oxidase activity: 3.0 ± 0.5 µmol/min/mg

## CC1=CC(=O)[C@@H](O)[C@]2(C)[C@H]3[C@@]4(O)OC[C@]35[C@H]([C@@H](C)[C@H]4O)[C@@H](O)C(=O)O[C@@H]5C[C@@H]12 [Glaucarubolone]
[1]
  Effect on activity of recombinant ABP-20: inhibited the activity
[1]; addition 1 μM
  NADH oxidase activity: 0.2 ± 0.06 µmol/min/mg

## O=C(O)Cc1c[nH]c2ccccc12 [Indole-3-acetic acid]
[1]; addition 1 μM
  NADH oxidase activity: 0.8 ± 0.05 µmol/min/mg
[1]; higher concentration less effective
  optimum concentration for activation: about 1 μM

## CC(=O)Nc1cc(NS(=O)(=O)C(F)(F)F)c(C)cc1C [Mefluidide, N-[2,4-Dimethyl-5-[[(trifluoromethyl)sulfonyl]amino]phenyl] acetamide]
[2]
  Effect on ENOX1 activity eluted from the IEF gel: inhibited
[2]; inhibitor 100 μM
  NADH oxidase activity: 1.8 ± 0.15 µmol/min/mg

## O=C(O)c1cc[c]([Hg][Cl])cc1 [PCMB]
[1]
  Effect on activity of recombinant ABP-20: inhibited
[1]; addition 100 μM
  NADH oxidase activity: 0.1 ± 0.05 µmol/min/mg

## O=S(=O)(O)c1cc[c]([Hg][Cl])cc1 [PCMS]
[1]
  Effect on activity of recombinant ABP-20: inhibited
[1]; addition 100 μM
  NADH oxidase activity: 0.3 ± 0.2 µmol/min/mg

## CC[C@@H](C)C(=O)O[C@H]1C(=O)O[C@@H]2C[C@H]3C(C)=CC(=O)[C@@H](O)[C@]3(C)[C@H]3[C@@H](O)[C@H](O)[C@]4(C)OC[C@]32[C@@H]14 [Simalikalactone D]
[1]
  Effect on activity of recombinant ABP-20: without effect
[1]; addition 1 μM
  NADH oxidase activity: 0.65 ± 0.07 µmol/min/mg
[2]; addition 1 μM
  NADH oxidase activity: 0.9 ± 0.1 µmol/min/mg
[2]
  Effect on ENOX1 activity eluted from the IEF gel: inhibited

## CCS(=O)(=O)c1nc2ccccn2c1S(=O)(=O)NC(=O)Nc1nc(OC)cc(OC)n1 [Sulfonsulfuron]
[2]
  Effect on ENOX1 activity eluted from the IEF gel: inhibited
[2]; inhibitor 100 μM
  NADH oxidase activity: 1.2 ± 0.5 µmol/min/mg

## OCCc1ccc(O)cc1 [Tyrosol]
[2]; inhibitor 10 μM
  NADH oxidase activity: 3.4 ± 0.2 µmol/min/mg

## Cc1cc(-c2ccccc2)c2ccc3c(-c4ccccc4)cc(C)nc3c2n1 [bathocuproine]
[1]; trifluoroacetic acid plus bathocuproine, FIG. 30B
  dNOX activity after unfolding: activity was lost
[2]; assayed with TFA and bathocuproine, FIG. 12
  NADH oxidase activity, 24 min period: much reduced

## [2H]O[2H] [heavy water, Deuterium Oxide]
[2]; assayed in heavy water, normal period 24 min
  Period length of ENOX1 activity: about 30 min

## COc1ccc2[nH]cc(CCNC(C)=O)c2c1 [melatonin]
[2]; 1 μM melatonin
  New maximum after melatonin addition (phasing of 24 min period): 24 min

## Trans-platinum
[1]
  Effect on activity of recombinant ABP-20: without effect
[1]; addition 1 μM
  NADH oxidase activity: 0.7 ± 0.1 µmol/min/mg

B1: G59A: ABP-20 with G59 replaced by alanine (adenine nucleotide binding motif) (protein, UniProt O04011 24-214, looked up, variant G59A)
Auxin-binding protein ABP20: AVQDFCVADLAAPEGPAGFSCKKPASVKVNDFVFSALGIAGNTSNIIKAAVTPAFVAQFPGVNGLGISIARLDLAVGGVVPFHTHPGASEVLIVAQGTICAGFVASDNTPYLQTLEKGDIMVFPQGLLHFQVNGGEAPALAFASFGSASPGLQILDFALFKNDLPTEVIAQTTFLDAAQIKKLKGVLGGTN
[3]
  DTDP Interchange: 0.07 ± 0.02 μmoles/min/mg protein
  Effect of replacement on disulfide-thiol interchange: without effect
[4]
  Effect of replacement on NADH oxidation: largely eliminated NADH oxidation
  NADH Oxidation: 0.06 ± 0.02 μmoles/min/mg protein

B2: H106A: ABP-20 putative copper site replacement (protein, UniProt O04011 24-214, looked up, variant H106A)
Auxin-binding protein ABP20: B1 Auxin-binding protein ABP20 with A36G, H83A
[3]
  DTDP Interchange: 0.02 ± 0.01 μmoles/min/mg protein
  Effect of replacement on disulfide-thiol interchange: near background
[4]
  Effect of replacement on NADH oxidation: near background
  NADH Oxidation: 0.04 ± 0.01 μmoles/min/mg protein

B3: H152A: ABP-20 putative copper site replacement (protein, UniProt O04011 24-214, looked up, variant H152A)
Auxin-binding protein ABP20: B1 Auxin-binding protein ABP20 with A36G, H129A
[3]
  DTDP Interchange: 0.02 ± 0.01 μmoles/min/mg protein
  Effect of replacement on disulfide-thiol interchange: near background
[4]
  Effect of replacement on NADH oxidation: near background
  NADH Oxidation: 0.03 ± 0.01 μmoles/min/mg protein
